The source made the active and inactive calls.
Experiments:
[1] = target: Cytochrome P450 2C19 (Homo sapiens, UniProt P33261); experiment: Cytochrome panel assay with activity outcomes. Panel member name: p450-cyp2c19 Compounds with AC50 equal or less than 10 uM are considered active; format: functional
[2] = target: T1, Cytochrome P450 1A2 (Homo sapiens, UniProt P05177)
T1 sequence (P05177 whole entry): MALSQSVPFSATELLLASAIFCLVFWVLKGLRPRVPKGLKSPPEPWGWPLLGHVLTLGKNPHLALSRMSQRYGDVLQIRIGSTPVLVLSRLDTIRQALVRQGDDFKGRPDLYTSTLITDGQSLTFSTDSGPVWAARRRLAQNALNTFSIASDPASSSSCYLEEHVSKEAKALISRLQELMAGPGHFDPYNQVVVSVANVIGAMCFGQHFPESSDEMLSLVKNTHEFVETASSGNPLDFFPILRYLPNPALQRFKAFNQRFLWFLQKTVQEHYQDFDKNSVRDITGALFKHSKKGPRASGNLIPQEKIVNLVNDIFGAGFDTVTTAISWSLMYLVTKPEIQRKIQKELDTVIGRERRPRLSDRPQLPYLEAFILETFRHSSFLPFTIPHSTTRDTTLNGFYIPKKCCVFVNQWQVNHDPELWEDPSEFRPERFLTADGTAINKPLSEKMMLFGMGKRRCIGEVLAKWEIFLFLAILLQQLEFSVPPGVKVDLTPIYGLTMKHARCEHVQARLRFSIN

[3] = Trypanosoma cruzi growth suppression in host cells – NIH3T3 host cells, beta-gal luminescence, confirmation (AID 2044); format: functional, cell-based;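 further: intracellular parasites grown in NIH/3T3 mouse fibroblasts as host cells; luminescent beta-galactosidase reporter signal from transgenic T. cruzi replicating inside host cells; inhibitors lower the luminescence signal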
[4] = NIH3T3 cell viability loss – ATP luminescence, mouse fibroblasts, counter-screen, dose response (AID 2010); format: functional, cell-based;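 further: cells exposed to compound for about 90 hours before reading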
[5] = system: Streptococcus; experiment: GAS UMAA2166 growth inhibition – luminescence, BacTiterGlo, counter-screen for streptokinase expression inhibitor project, dose response (AID 1915); format: functional, organism-based;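 further: potency for reduction of bacterial viability or growth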
[6] = target: T2, Streptokinase A (Streptococcus pyogenes serotype M1, UniProt P10520); experiment: viability-normalized secreted streptokinase activity reduction – plasminogen activation absorbance, OD405, dose response (AID 1914); format: functional, Streptococcus pyogenes M1 GAS;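 further: secreted streptokinase activity via plasminogen activation per viability signal from cell pellet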
T2 sequence (P10520 whole entry): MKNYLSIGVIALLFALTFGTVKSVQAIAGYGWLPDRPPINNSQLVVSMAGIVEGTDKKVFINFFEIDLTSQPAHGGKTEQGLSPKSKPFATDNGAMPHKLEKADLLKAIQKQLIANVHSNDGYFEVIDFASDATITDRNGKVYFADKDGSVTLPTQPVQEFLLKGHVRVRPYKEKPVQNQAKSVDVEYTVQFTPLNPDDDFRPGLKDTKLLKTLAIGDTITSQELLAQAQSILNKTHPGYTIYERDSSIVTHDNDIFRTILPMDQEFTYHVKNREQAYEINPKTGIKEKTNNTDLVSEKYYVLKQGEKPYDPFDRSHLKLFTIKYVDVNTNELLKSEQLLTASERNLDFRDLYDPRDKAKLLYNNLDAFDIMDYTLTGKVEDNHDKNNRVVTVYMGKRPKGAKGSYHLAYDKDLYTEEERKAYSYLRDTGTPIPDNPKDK

[7] = system: Streptococcus sp. 'group A'; experiment: Streptococcus pyogenes SK(-)GAS viability under kanamycin – luminescence, BacTiterGlo, confirmation, counter-screen for streptokinase expression inhibitor project, dose response (AID 1900); format: functional, organism-based
[8] = Luminescence Cell-Based Dose Response HTS to Identify Activators of Luciferase Translation or Activity in H4 […] Cells. [Related pubchem assays: 1829 (Project Summary), 1814 (Primary HTS)]; format: functional
[9] = system: H4; experiment: Luminescence Cell-Based Dose Response HTS to Identify Activators of 5'UTR Stem-Loop Driven Prion Protein mRNA Translation in H4 Neuroglioblastoma Cells. [Related pubchem assays: 1829 (Project Summary), 1814 (Primary HTS)]; format: functional; conditions: Homo sapiens

Sequence of Cytochrome P450 2C19 (P33261 whole entry): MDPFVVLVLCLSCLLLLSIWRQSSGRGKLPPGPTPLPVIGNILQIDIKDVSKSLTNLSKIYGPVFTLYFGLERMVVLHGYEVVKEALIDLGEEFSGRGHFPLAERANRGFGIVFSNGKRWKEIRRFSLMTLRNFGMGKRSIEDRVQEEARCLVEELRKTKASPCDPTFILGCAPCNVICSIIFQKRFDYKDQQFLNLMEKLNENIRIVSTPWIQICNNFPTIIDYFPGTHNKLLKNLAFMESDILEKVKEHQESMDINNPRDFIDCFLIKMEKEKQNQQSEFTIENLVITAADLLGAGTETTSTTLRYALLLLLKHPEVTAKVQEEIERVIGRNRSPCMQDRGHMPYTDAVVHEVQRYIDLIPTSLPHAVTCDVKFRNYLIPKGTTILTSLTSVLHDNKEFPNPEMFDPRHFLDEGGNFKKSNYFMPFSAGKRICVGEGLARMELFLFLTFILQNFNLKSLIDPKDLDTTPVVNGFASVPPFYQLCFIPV

CCN1CCC2(CC1)NC(CO)(CO)CO2
AC50 [1]: inconclusive

COc1ccc(-c2cnnn2-c2ccc(NC(=O)c3ccco3)cc2)cc1OC
AC50 [2]: 14.1 µM (inconclusive)

COC(=O)C1=CN(c2ccc(OC)cc2)C=C(C(=O)OC)C1c1ccc([N+](=O)[O-])cc1
EC50 [3]: 1.94 µM (active)
EC50 [4]: > 30 µM (not active)

Cc1cccc(N2CCN(C(=O)C34CC5CC(CC(C5)C3)C4)CC2)c1C
EC50 [5]: 11.3 µM (active)
EC50 [6]: 15.2 µM (active)
EC50 [7]: 3.81 µM (active)

CCSc1n[nH]c2c3cccc(C)c3nc-2n1
EC50 [8]: 2.08 µM (active)
EC50 [9]: > 120 µM (not active)

CCCCCCOC(=O)C(C#N)c1nc2ccccc2nc1N1CCN(C)CC1 (centres undefined)
EC50 [3]: 2.57 µM (active)
EC50 [4]: 11.3 µM (active)

COc1ccc(-n2c(=O)c(CCc3ccccc3)nc3cnc(N4CCOCC4)nc32)cc1
AC50 ([1]; read-out: AC50): 25.1 µM (inconclusive)
AC50 [2]: 15.8 µM (inconclusive)

CCN1CC=C2C(C#N)=C(N)C(C#N)(C#N)[C@H](c3ccoc3)[C@H]2C1
AC50 ([1]; read-out: AC50): 39.8 µM (inconclusive)
AC50 [2]: 39.8 µM (inconclusive)

O=C(Nc1cccc(Cl)c1N1CCCC1)c1ccc(Br)o1
EC50 [5]: 6.85 µM (active)
EC50 [6]: > 150 µM (not active)
EC50 [7]: 4.12 µM (active)

CS(=O)(=O)c1ccc(/C=N\NC(N)=S)cc1
AC50 [2]: 5.01 µM (inconclusive)

C[C@@H](Cc1ccccc1)NCCC(c1ccccc1)c1ccccc1
AC50 ([1]; read-out: AC50): 7.94 µM (inconclusive)
AC50 [2]: 15.8 µM (inconclusive)

COC(=O)[C@@]1(Cc2ccc(F)cc2)[C@@H]2[C@@H](CC(=O)[C@H]2CC(=O)C(=O)N(C)C)CN1C(=O)c1ccccc1
AC50 ([1]; read-out: AC50): 39.8 µM (inconclusive)

O=C(NCCCN1CCCC1)C1CCN(C(=O)c2cc3sccc3n2Cc2ccc(F)cc2)CC1
EC50 [3]: 1.32 µM (active)
EC50 [4]: > 60 µM (not active)

COc1ccc(-c2nnc(NC(=O)C3CCCN3S(=O)(=O)c3cccs3)o2)cc1 (centres undefined)
EC50 [5]: > 150 µM (not active)
EC50 [6]: > 150 µM (not active)
EC50 [7]: > 150 µM (not active)

c1ccc(Nc2ccc3c4c(cccc24)CC3)cc1
EC50 [3]: 0.97 µM (active)
EC50 [4]: 59.5 µM (active)

CCOC(=O)c1ccc(OC(=O)CCCCCNC(=N)N)cc1
AC50 [2]: 12.6 µM (inconclusive)

COC(=O)[C@@H]1CC[C@H](C)[C@@H](c2ccc(C)cc2)N1C(=O)c1ccc(/C=N\OC[C@@H](C)[C@H](OCc2ccccc2)C(C)C)cc1
AC50 ([1]; read-out: AC50): 6.31 µM (inconclusive)

O=C(CCC(=O)Nc1cc(C(F)(F)F)ccc1Cl)N/N=C\c1cc([N+](=O)[O-])ccc1O
EC50 [5]: 1.44 µM (active)
EC50 [7]: 0.675 µM (active)

Oc1ccc(-c2nc3c4c(ncn3n2)-c2ccccc2CC42CCCC2)cc1
EC50 [5]: 0.936 µM (active)
EC50 [7]: 0.909 µM (active)

Cc1cc(=O)c(C(=O)O)cn1Nc1ccc(Cl)cc1
EC50 [5]: 14.5 µM (active)
EC50 [6]: > 150 µM (not active)
EC50 [7]: 3.15 µM (active)

CN1C2C=C3C(C#N)=C(N)C(C#N)(C#N)[C@H](c4c(F)cccc4F)[C@H]3C1CC2 (some centres undefined)
AC50 ([1]; read-out: AC50): 22.4 µM (inconclusive)

CSc1nc(O)c2c(n1)N=C(C)/C(=C(/O)OC(C)C)C2c1ccncc1 (centres undefined)
AC50 [2]: 20 µM (inconclusive)

Cc1ccc(C)c(C(=O)COC(=O)c2cc(Cl)nc3ccccc23)c1
EC50 [5]: > 150 µM (not active)
EC50 [6]: 19.4 µM (active)
EC50 [7]: 60.6 µM (active)

CCCCCCn1c(=O)c(C(=O)Nc2c(C)n(C)n(-c3ccccc3)c2=O)c(O)c2ccccc21
EC50 [5]: 8.06 µM (active)
EC50 [6]: 3.63 µM (active)
EC50 [7]: 3.09 µM (active)

Cc1cc2c(O)nc(N)nc2nc1C
AC50 [2]: 6.31 µM (inconclusive)

Cc1c(C(=O)Nc2cccc([N+](=O)[O-])c2)csc1-c1ccccc1
EC50 [3]: 1.43 µM (active)
EC50 [4]: > 60 µM (not active)

NCCc1ccc(S(=O)(=O)F)cc1
AC50 [2]: 15.8 µM (inconclusive)

Cc1ccc(Nc2ccc([N+](=O)[O-])nc2[N+](=O)[O-])cc1
EC50 [3]: 1.57 µM (active)
EC50 [4]: > 60 µM (not active)

Cc1ccc(S(=O)(=O)N(C(=N)N)c2nc(N(C)C)nc(N(C)C)n2)cc1
EC50 [3]: 0.879 µM (active)
EC50 [4]: > 60 µM (not active)

COc1ccc(NC(=O)C2CC(=O)NC3=C2C(=O)CC(C)(C)C3)cc1 (centres undefined)
AC50 ([1]; read-out: AC50): 39.8 µM (inconclusive)

COc1ccc(-c2cc3n(n2)CCc2nc4ccccc4n2-3)cc1
EC50 [8]: 10.5 µM (active)
EC50 [9]: 12.5 µM (active)

COc1cc(/C=C/C(=O)OC2CC3CCC2(C)C3(C)C)ccc1O (centres undefined)
EC50 [5]: 6.7 µM (active)
EC50 [6]: 7.32 µM (active)
EC50 [7]: 6.88 µM (active)

COc1ccc(CCNC(=O)CCCCCN2C(=O)c3ccccc3C2=O)cc1
AC50 [2]: 25.1 µM (inconclusive)

CC(C)CN=C(S)N1CCN(C)CC1
AC50 ([1]; read-out: AC50): 39.8 µM (inconclusive)

Cc1c(Cl)cccc1NC(=O)COC(=O)c1c2c(nc3ccccc13)CCN(Cc1ccccc1)C2
EC50 [3]: 1.63 µM (active)
EC50 [4]: > 60 µM (not active)

Cc1cc(NC(=O)/C=C/c2ccccc2Cl)no1
EC50 [8]: 118 µM (active)
EC50 [9]: 9.55 µM (active)

CC1(C)Cc2c(sc3nc(-c4cc5ccccc5o4)n(N)c(=O)c23)CO1
EC50 [8]: 0.817 µM (active)
EC50 [9]: > 120 µM (inconclusive)

COc1ccccc1OCCCn1c(C)c(C#N)c2ccccc21
EC50 [5]: > 150 µM (not active)
EC50 [6]: 23.2 µM (active)
EC50 [7]: 21.2 µM (active)

O=c1c2cc(N3CCOCC3)ccc2[nH]c(=S)n1CCc1ccccc1
EC50 [5]: 12.3 µM (active)
EC50 [6]: > 150 µM (not active)
EC50 [7]: 0.447 µM (active)

C[C@H]1[C@H](C)CC[C@]2(C)CC[C@]3(C)C(=CC[C@@H]4[C@@]5(C)CC[C@@H](O)[C@](C)(C(=O)O)[C@@H]5CC[C@]43C)[C@H]12 [BOSWELLIC ACID]
EC50 [5]: 0.963 µM (active)
EC50 [7]: 0.705 µM (active)

CC1c2ccccc2SC(CCCN(C)C)c2ccccc21 (centres undefined)
EC50 [3]: 0.639 µM (active)
EC50 [4]: > 60 µM (not active)

CCn1ccc(C(=O)NC2C(=O)N3C(C(=O)O)=C(C)CSC23)n1 (centres undefined)
AC50 ([1]; read-out: AC50): 14.1 µM (inconclusive)

CC(C)(C)CNC(CO)C12CC3CC(CC(C3)C1)C2 (centres undefined)
AC50 ([1]; read-out: AC50): 15.8 µM (inconclusive)

O=C(NCc1ccccc1)C(=O)NCC1OCCN1S(=O)(=O)c1ccc([N+](=O)[O-])cc1 (centres undefined)
EC50 [3]: 0.782 µM (active)
EC50 [4]: > 60 µM (not active)

N=C(Cc1ccc(Cl)cc1)NOC(=O)c1cccc2ccccc12
EC50 [3]: 0.81 µM (active)
EC50 [4]: > 60 µM (not active)

CCN=C(S)NNC(=O)c1cc(C)on1
AC50 ([1]; read-out: AC50): 7.94 µM (inconclusive)

CC1CCCN(C(=O)C(=O)c2cn(CC(=O)N3CCCCCC3)c3ccccc23)C1 (centres undefined)
EC50 [3]: 0.765 µM (active)
EC50 [4]: > 60 µM (not active)

Cc1ccc(-c2[nH]nc(N)c2N=Nc2ccccc2C)cc1
EC50 [5]: 8.03 µM (active)
EC50 [6]: > 150 µM (not active)
EC50 [7]: 2.63 µM (active)

CCOc1ccc(CN2CCN(Cc3cccc4nonc34)CC2CCO)cc1 (centres undefined)
EC50 [3]: 0.559 µM (active)
EC50 [4]: > 60 µM (not active)

Cn1c(O)c(C(c2ccccn2)c2c(O)n(C)c(=S)[nH]c2=O)c(=O)[nH]c1=S
AC50 ([1]; read-out: AC50): 0.316 µM (inconclusive)

Cc1cc(C)c(S(C)(=O)=O)c(Oc2ccc(F)cc2)n1
AC50 ([1]; read-out: AC50): 20 µM (inconclusive)
